Converted amounts (≈) assume the structure as drawn.
Test system: P388
Experiment: Cytotoxicity against mouse P388 cells
Type: functional, cell-based

C=C1OC(=O)[C@@]2([C@H](/C=C/[C@H](C)C[C@H](C)CC)C=C[C@@H](O)[C@@H]2O)[C@H]1O [SPIROLEPHTOSHOL]
EC50: 20 µg/mL (≈ 59.4 µM)
